Patent publication US11053204B2, “Pyrimidinyloxy benzene derivatives as herbicides” (FMC Corporation, priority 2015, dated 2021)

Columns and labels:
Assay in all cases: Test C postemergence, plant response rating
Assay type in all cases: in vivo
[1] = tested on: barnyardgrass (Echinochloa crus-galli); settings: Echinochloa crus-galli, post-emergence
Procedure, shortened: (§1)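 After sowing in loam–sand blend or silt loam, pots were sprayed preemergence; separately grown 1- to 4-leaf plants were sprayed postemergence. Following 13 to 15 d under greenhouse conditions, injury was rated visually on a 0 to 100 scale.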

[2] = tested on: blackgrass (Alopecurus myosuroides); settings: Alopecurus myosuroides, post-emergence
Procedure, shortened: as §1

[3] = tested on: corn (Zea mays); settings: Zea mays, post-emergence
Procedure, shortened: as §1

[4] = tested on: crabgrass, large (large crabgrass, Digitaria sanguinalis); settings: Digitaria sanguinalis, post-emergence
Procedure, shortened: as §1

[5] = tested on: galium (catchweed bedstraw, Galium aparine); settings: Galium, post-emergence
Procedure, shortened: as §1

[6] = tested on: kochia (Kochia scoparia); settings: Bassia scoparia, post-emergence
Procedure, shortened: as §1

[7] = tested on: lambsquarters (Chenopodium album); settings: Chenopodium album, post-emergence
Procedure, shortened: as §1

[8] = tested on: nutsedge, yellow (yellow nutsedge, Cyperus esculentus); settings: Cyperus, post-emergence
Procedure, shortened: as §1

[9] = tested on: oat, wild (wild oat Avena fatua); settings: Avena fatua, post-emergence
Procedure, shortened: as §1

[10] = tested on: oilseed rape (Brassica napus); settings: Brassica napus, post-emergence
Procedure, shortened: as §1

[11] = tested on: ragweed (common ragweed, Ambrosia elatior); settings: Ambrosia artemisiifolia, post-emergence
Procedure, shortened: as §1

[12] = tested on: ryegrass, Italian (Italian ryegrass, Lolium multiflorum); settings: Lolium multiflorum, post-emergence
Procedure, shortened: as §1

[13] = tested on: soybean (Glycine max); settings: Glycine max, post-emergence
Procedure, shortened: as §1

[14] = tested on: velvetleaf (Abutilon theophrasti); settings: Abutilon theophrasti, post-emergence
Procedure, shortened: as §1

[15] = tested on: wheat (winter wheat, Triticum aestivum); settings: Triticum aestivum, post-emergence
Procedure, shortened: as §1

[16] = 62 g ai/ha, scale 0 to 100 (0 no effect, 100 complete control)
[17] = 125 g ai/ha, scale 0 to 100 (0 no effect, 100 complete control)

SMILES: CC(CC(F)(F)F)OC(=O)c1c(Br)cccc1Oc1ncc(Cl)cn1 (stereo not drawn) [Compound 16, 3,3,3-trifluoro-1-methylpropyl 2-bromo-6-[(5-chloro-2-pyrimidinyl)oxy]benzoate]
- pest or weed control at 16 g/ha ([1]; 16 g ai/ha, scale 0 to 100): 5%
- pest or weed control at 31 g/ha ([1]; 31 g ai/ha, scale 0 to 100): 10%
- pest or weed control at 62 g/ha [1, 16]: 20%
- pest or weed control at 125 g/ha [1, 17]: 20%
- pest or weed control at 16 g/ha ([2]; 16 g ai/ha, scale 0 to 100): 0%
- pest or weed control at 31 g/ha ([2]; 31 g ai/ha, scale 0 to 100): 0%
- pest or weed control at 62 g/ha [2, 16]: 0%
- pest or weed control at 125 g/ha [2, 17]: 5%
- Corn plant response rating (crop injury, 0 = no effect, 100 = complete kill) at 16 g/ha ([3]; 16 g ai/ha, scale 0 to 100): 5%
- Corn plant response rating (crop injury, 0 = no effect, 100 = complete kill) at 31 g/ha ([3]; 31 g ai/ha, scale 0 to 100): 15%
- plant injury at 62 g/ha [3, 16]: 15%
- plant injury at 125 g/ha [3, 17]: 20%
- pest or weed control at 16 g/ha ([4]; 16 g ai/ha, scale 0 to 100): 10%
- pest or weed control at 31 g/ha ([4]; 31 g ai/ha, scale 0 to 100): 15%
- pest or weed control at 62 g/ha [4, 16]: 25%
- pest or weed control at 125 g/ha [4, 17]: 25%
- pest or weed control at 16 g/ha ([5]; 16 g ai/ha, scale 0 to 100): 45%
- pest or weed control at 31 g/ha ([5]; 31 g ai/ha, scale 0 to 100): 50%
- pest or weed control at 62 g/ha [5, 16]: 55%
- pest or weed control at 125 g/ha [5, 17]: 55%
- pest or weed control at 16 g/ha ([6]; 16 g ai/ha, scale 0 to 100): 40%
- pest or weed control at 31 g/ha ([6]; 31 g ai/ha, scale 0 to 100): 50%
- pest or weed control at 62 g/ha [6, 16]: 80%
- pest or weed control at 125 g/ha [6, 17]: 90%
- pest or weed control at 16 g/ha ([7]; 16 g ai/ha, scale 0 to 100): 40%
- pest or weed control at 31 g/ha ([7]; 31 g ai/ha, scale 0 to 100): 50%
- pest or weed control at 62 g/ha [7, 16]: 40%
- pest or weed control at 125 g/ha [7, 17]: 60%
- pest or weed control at 16 g/ha ([8]; 16 g ai/ha, scale 0 to 100): 0%
- pest or weed control at 31 g/ha ([8]; 31 g ai/ha, scale 0 to 100): 5%
- pest or weed control at 62 g/ha [8, 16]: 10%
- pest or weed control at 125 g/ha [8, 17]: 20%
- pest or weed control at 16 g/ha ([9]; 16 g ai/ha, scale 0 to 100): 0%
- pest or weed control at 31 g/ha ([9]; 31 g ai/ha, scale 0 to 100): 5%
- pest or weed control at 62 g/ha [9, 16]: 5%
- pest or weed control at 125 g/ha [9, 17]: 10%
- plant injury at 16 g/ha ([10]; 16 g ai/ha, scale 0 to 100): 15%
- plant injury at 31 g/ha ([10]; 31 g ai/ha, scale 0 to 100): 35%
- plant injury at 62 g/ha [10, 16]: 60%
- plant injury at 125 g/ha [10, 17]: 70%
- pest or weed control at 16 g/ha ([11]; 16 g ai/ha, scale 0 to 100): 20%
- pest or weed control at 31 g/ha ([11]; 31 g ai/ha, scale 0 to 100): 10%
- pest or weed control at 62 g/ha [11, 16]: 10%
- pest or weed control at 125 g/ha [11, 17]: 40%
- pest or weed control at 16 g/ha ([12]; 16 g ai/ha, scale 0 to 100): 0%
- pest or weed control at 31 g/ha ([12]; 31 g ai/ha, scale 0 to 100): 0%
- pest or weed control at 62 g/ha [12, 16]: 0%
- pest or weed control at 125 g/ha [12, 17]: 5%
- plant injury at 16 g/ha ([13]; 16 g ai/ha, scale 0 to 100): 15%
- plant injury at 31 g/ha ([13]; 31 g ai/ha, scale 0 to 100): 35%
- plant injury at 62 g/ha [13, 16]: 50%
- plant injury at 125 g/ha [13, 17]: 50%
- pest or weed control at 16 g/ha ([14]; 16 g ai/ha, scale 0 to 100): 20%
- pest or weed control at 31 g/ha ([14]; 31 g ai/ha, scale 0 to 100): 25%
- pest or weed control at 62 g/ha ([14]; 62 g ai/ha, scale 0 to 100 (0 no effect, 100 complete control), read-out: Velvetleaf plant response rating): 30%
- pest or weed control at 125 g/ha [14, 17]: 50%
- plant injury at 16 g/ha ([15]; 16 g ai/ha, scale 0 to 100): 0%
- plant injury at 31 g/ha ([15]; 31 g ai/ha, scale 0 to 100): 0%
- plant injury at 62 g/ha ([15]; 62 g ai/ha, scale 0 to 100 (0 no effect, 100 complete control), read-out: Wheat plant response rating): 0%
- plant injury at 125 g/ha [15, 17]: 0%
